Results taken from patent US7888337B2 (priority 2007, dated 2011).
Several values for one entry are separate records, joined by “and”; a condition that tells them apart may be missing. Equal values may be shown once. Read-outs that look alike come from different tables or passages of the source. Marks after values point to notes of the source that are not given here.

How the values were obtained:
[1] = system: flu (A/WSN/1933) infection, H1N1; assay: microbe, parasite or virus in culture; format: cell-based, influenza A/WSN/1933 (H1N1)
in vitro = conditions: dog
[2] = molecular target: NA from influenza virus A/Hanoi/30408/2005 (H5N1) (Influenza A virus (A/Hanoi/30408/2005(H5N1)), UniProt Q3C1C4); assay: biochemical
[3] = molecular target: Neuraminidase (NA) from influenza virus A/WSN/1933 (H1N1) (Influenza A virus, UniProt P03470); assay: biochemical; format: biochemical
Neuraminidase (NA) from influenza virus A/WSN/1933 (H1N1), sequence (P03470 whole entry, looked up): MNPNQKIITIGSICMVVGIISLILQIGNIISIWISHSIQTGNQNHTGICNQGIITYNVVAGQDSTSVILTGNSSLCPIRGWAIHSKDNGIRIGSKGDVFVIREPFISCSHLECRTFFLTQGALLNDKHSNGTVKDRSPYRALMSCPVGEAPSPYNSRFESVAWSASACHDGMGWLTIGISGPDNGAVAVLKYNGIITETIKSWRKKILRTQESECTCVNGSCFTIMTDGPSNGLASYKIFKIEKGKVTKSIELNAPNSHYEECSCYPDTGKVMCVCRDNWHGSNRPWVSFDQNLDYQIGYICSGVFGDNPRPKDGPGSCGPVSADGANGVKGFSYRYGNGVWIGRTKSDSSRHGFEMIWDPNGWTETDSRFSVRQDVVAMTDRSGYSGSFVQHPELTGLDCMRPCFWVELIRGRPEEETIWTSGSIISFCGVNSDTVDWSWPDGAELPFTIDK

[4] = system: influenza A [A/WSN/33 (H1N1)] virus; parameters: species or system mice; conditions: mouse, in vivo; for efficacy at lower concentrations in comparison to compounds 3 and 13b: 0.01 mg/kg/day
[5] = system: NIBRG-14 (H5N1) influenza A virus; parameters: species or system mice; conditions: mouse, in vivo
[6] = system: A/WSN/33 (H1N1) influenza virus; conditions: mouse, in vivo

`CCC(CC)O[C@@H]1C=C(C(=O)O)C[C@H](NC(=N)N)[C@H]1NC(C)=O` [Compound 13a, (3R,4R,5S)-4-acetamido-5-guanidinyl-3-(1-ethylpropoxy)-1-cyclohexene-1-carboxylic acid, reference compound] showed an EC50 ([1]; Influenza A virus, MDCK) of 5.6 nM, a CC50 (in vitro) greater than 100000 nM and an IC50 [2] of 160 nM.
With `CC(=O)N[C@H]1[C@H](O)C=C(P(=O)(O)O)C[C@@H]1N` [Compound 14b, Ammonium (3R,4R,5S)-4-acetamido-5-amino-3-hydroxy-1-cyclohexene-1-phosphonate] the IC50 [3] was 3200 nM and the “NAI activity in comparison with 2 and 3” value [3] was “inferior NAI activity”.
In the case of `CCOP(=O)(O)C1=C[C@@H](OC(CC)CC)[C@H](NC(C)=O)[C@@H](NC(=N)N)C1.N` [Compound 13c, Ethyl (3R,4R,5S)-4-acetamido-5-guanidinyl-3-(1-ethylpropoxy)-1-cyclohexene-1-phosphonate ammonium salt], the “survival rate and body weight in comparison to compounds 3 and 13b” value [4] is reported as “improved survival rates and improved weight retention”, the “efficacy at lower concentrations in comparison to compounds 3 and 13b” value [4] is reported as “equally ineffective” and the “Mean day to death” value ([4]; ammonium salt) is reported as 6.8 days and 5.7 days.
In the case of `CCOC(=O)C1=C[C@@H](OC(CC)CC)[C@H](NC(C)=O)[C@@H](N)C1` [Compound 1, Ethyl (3R,4R,5S)-4-acetamido-5-amino-3-(1-ethylpropoxy)-1-cyclohexene-1-carboxylate phosphate, reference compound], the “% Survivors, day 7” value ([5]; phosphate) is reported as 10 (100)^b % and 0 (40)^b % and 0 (0)^b %, the “% Survivors, day 14” value ([5]; phosphate) is reported as 10 (100)^b % and 0 (40)^b % and 0 (0)^b % and the “Mean day to death” value ([5]; phosphate) is reported as 9.4 days and 7.6 days and 5.3 days.
With `CCOP(=O)(O)C1=C[C@@H](OC(CC)CC)[C@H](NC(C)=O)[C@@H](N)C1.N` [Compound 3c, Ethyl (3R,4R,5S)-4-acetamido-5-amino-3-(1-ethylpropoxy)-1-cyclohexene-1-phosphonate ammonium salt] the “survival rate and body weight in comparison to compounds 3 and 13b” value [4] was “improved survival rates and improved weight retention”, the “efficacy at lower concentrations in comparison to compounds 3 and 13b” value [4] was “equally ineffective” and the “Mean day to death” value ([4]; ammonium salt) was 9.3 days and 6.2 days and 4.8 days.
With `CC(=O)N[C@H]1[C@H](O)C=C(C(=O)O)C[C@@H]1N` [Compound 14a, (3R,4R,5S)-4-Acetamido-5-amino-3-hydroxy-1-cyclohexene-1-carboxylic acid, reference compound] the IC50 [3] was 36700 nM and the “NAI activity in comparison with 2 and 3” value [3] was “inferior NAI activity”.
For `CCOP(=O)(OCC)C1=C[C@@H](OC(CC)CC)[C@H](NC(C)=O)[C@@H](N)C1` [Compound 3b, Diethyl (3R,4R,5S)-4-acetamido-5-amino-3-(1-ethylpropoxy)-1-cyclohexene-1-phosphonate], the “% Survivors, day 7” value [6] was 0 (100)^b % and 0 (60)^b % and 0 (30)^b %, the “% Survivors, day 14” value [6] was 0 (100)^b % and 0 (60)^b % and 0 (30)^b % and the “% Survivors, day 7” value [5] was 0 (100)^b % and 0 (20)^b % and 0 (0)^b %. For the same compound, the “% Survivors, day 14” value [5] was 0 (100)^b % and 0 (20)^b % and 0 (0)^b % and the “Mean day to death” value [5] was 9.5 days and 7.3 days and 5.3 days and 4.9 days.
In the case of `CCC(CC)O[C@@H]1C=C(P(=O)(O)O)C[C@H](N)[C@H]1NC(C)=O` [Compound 3, Ammonium (3R,4R,5S)-4-acetamido-5-amino-3-(1-ethylpropoxy)-1-cyclohexene-1-phosphonate], the “Mean day to death” value [4] is reported as 8.2 days and 5.9 days and 5.3 days, the EC50 ([1]; Influenza A virus, MDCK) is reported as 4.67 nM and the CC50 (in vitro) is reported as 74000 nM. The IC50 [2] was 13.3 nM, the “efficacy compared with Tamiflu by survival rate and mean survival time of mice” value [6] was “more effective than Tamiflu” and the “oral bioavailability in protecting mice against lethal challenge” value ([6]; po) was “orally bioavailable”. For the same compound, the “% Survivors, day 7” value [5] was 10 (100)^b % and 0 (60)^b % and 0 (0)^b %, the “% Survivors, day 14” value [5] was 10 (100)^b % and 0 (60)^b % and 0 (0)^b % and the “Mean day to death” value [5] was 9.1 days and 8.7 days and 5.6 days and 5.7 days. The “efficacy compared with Tamiflu by survival rate and mean survival time of mice” value [5] was “at least equally effective”.
Work on `CCC(CC)O[C@@H]1C=C(P(=O)(O)O)C[C@H](NC(=N)N)[C@H]1NC(C)=O` [Compound 13b, Ammonium (3R,4R,5S)-4-acetamido-5-guanidinyl-3-(1-ethylpropoxy)-1-cyclohexene-1-phosphonate] yielded an EC50 ([1]; Influenza A virus, MDCK) of 0.09 nM, a CC50 (in vitro) of roughly 5000 nM and an IC50 [2] of 1.82 nM.
In the case of `CCC(CC)O[C@@H]1C=C(C(=O)O)C[C@H](N)[C@H]1NC(C)=O` [Compound 2, (3R,4R,5S)-4-Acetamido-5-amino-3-(1-ethylpropoxy)-1-cyclohexene-1-carboxylic acid, reference compound], the EC50 ([1]; read-out: EC50) is reported as 31.3 nM, the CC50 (in vitro) is reported as greater than 100000 nM and the IC50 [2] is reported as 62.9 nM.
